In patent US8367677B2, “Non-glycosylated/non-glycosidic/non-peptidic small molecule PSGL-1 mimetics for the treatment of inflammatory disorders” (Revotar Biopharmaceuticals AG, priority 2004, dated 2013):

Columns and labels:
[1] = target: T1, human P-Selectin-IgG-chimera (Homo sapiens, UniProt P16109); assay: Sialyl Lewis x Tyrosine Sulfate Assay (sLex TSA), P-selectin; format: binding; details: for inhibition at 100 µM: read-out: P-Selectin [% Inhib.]
T1 sequence (P16109 42-771 limits assumed): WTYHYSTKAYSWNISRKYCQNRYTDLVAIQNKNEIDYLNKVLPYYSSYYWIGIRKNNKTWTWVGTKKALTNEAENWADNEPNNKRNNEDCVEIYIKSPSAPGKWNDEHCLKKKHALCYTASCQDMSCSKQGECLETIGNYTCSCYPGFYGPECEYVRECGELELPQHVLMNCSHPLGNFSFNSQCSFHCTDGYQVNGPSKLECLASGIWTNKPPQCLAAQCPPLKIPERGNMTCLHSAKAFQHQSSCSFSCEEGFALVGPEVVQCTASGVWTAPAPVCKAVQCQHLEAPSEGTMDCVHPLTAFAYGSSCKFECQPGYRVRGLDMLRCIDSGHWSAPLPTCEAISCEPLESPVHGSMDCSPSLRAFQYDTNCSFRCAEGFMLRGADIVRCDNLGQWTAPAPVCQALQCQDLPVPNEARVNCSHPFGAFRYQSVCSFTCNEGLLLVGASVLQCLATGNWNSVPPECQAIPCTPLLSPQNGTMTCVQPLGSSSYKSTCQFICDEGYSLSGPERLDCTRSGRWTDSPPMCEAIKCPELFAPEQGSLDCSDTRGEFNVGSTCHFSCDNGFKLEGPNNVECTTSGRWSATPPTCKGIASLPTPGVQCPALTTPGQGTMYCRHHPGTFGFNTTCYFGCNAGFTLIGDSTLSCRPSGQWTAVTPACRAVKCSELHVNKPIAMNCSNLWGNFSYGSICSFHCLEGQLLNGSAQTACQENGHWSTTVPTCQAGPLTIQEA
Method: (§1) Compounds of the present invention are assayed on a molecular level for their ability to inhibit the binding of P-, L-, or E-selectin chimeric molecules to sLe^x and tyrosinesulfate residues linked to a polymeric matrix as a PSGL-1 substitute.
(§2) Microtiter plates are coated overnight in carbonate buffer pH9.6 with goat anti human Fc mAB (10 μg/ml). After washing in assay buffer (25 mM 4-(2-hydroxyethyl)-1-piperazineethanesulfonic acid (HEPES), 150 mM NaCl, 1 mM CaCl2 pH7.4) and blocking (3% bovine serum albumin (BSA) in assay buffer) plates are incubated for 2 h at 37° C. with human P-Selectin-IgG-chimera (0.61 nM respectively 150 ng/mL) or human L-Selectin-IgG-chimera (0.61 nM respectively 89 ng/mL) or human E-Selectin-IgG-chimera (0.61 nM respectively 131 ng/mL). 5 μl of sLe^x-tyrosine sulfate polyacrylamide (1 mg/ml) carrying 15% sLe^x, 10% Tyrosine-sulfate and 5% biotin is complexed with 20 μl Streptavidin-Peroxidase solution (1 mg/ml) and 25 μl assay buffer without CaCl2. For use in the assay, the ligand complex is diluted 1:10000 in assay buffer and further diluted 1:1 with varying amounts of compounds in assay buffer incl. 2% DMSO. This mixture is added to the wells precoated with E- or P-selectin. After incubation for 2 h at 37° C., wells are washed for six times with in assay buffer incl. 0.005% Polyoxyethylenesorbitan monolaurate (TWEEN 20), developed for 10-15 min with 20 μl 3,3′,5,5′-tetramethylbenzidine (TMB)/H2O2 substrate solution and stopped with 20 μl […]. Bound sLe^x-Tyrosine sulfate ligand complex is determined by measuring optical density at 450 nm vs. 620 nm in a Fusion alpha-FP reader (sold from Packard Bioscience, Dreieich, Germany).

[2] = target: T2, human E-Selectin-IgG-chimera (Homo sapiens, UniProt P16581); assay: Sialyl Lewis x Tyrosine Sulfate Assay (sLex TSA), E-selectin; format: binding; details: for inhibition at 100 µM: read-out: E-Selectin [% Inhib.]
T2 construct: fused on or other part: human IgG Fc part, a tag and dimerising handle that is captured by the goat anti-human Fc antibody on the plate
T2 sequence (P16581 22-175 limits assumed): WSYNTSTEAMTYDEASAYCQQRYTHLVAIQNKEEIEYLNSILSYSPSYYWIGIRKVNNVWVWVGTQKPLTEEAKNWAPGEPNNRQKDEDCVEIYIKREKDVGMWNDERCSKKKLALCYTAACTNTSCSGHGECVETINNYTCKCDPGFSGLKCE
Method: as §1, §2

[3] = target: T3, human L-Selectin-IgG-chimera (Homo sapiens, UniProt P14151); assay: Sialyl Lewis x Tyrosine Sulfate Assay (sLex TSA), L-selectin; format: binding; details: for inhibition at 100 µM: read-out: L-Selectin [% Inhib.]
T3 construct: fused on or other part: human IgG Fc part, a tag and dimerising handle that is captured by the goat anti-human Fc antibody on the plate
T3 sequence (P14151 39-318 limits assumed): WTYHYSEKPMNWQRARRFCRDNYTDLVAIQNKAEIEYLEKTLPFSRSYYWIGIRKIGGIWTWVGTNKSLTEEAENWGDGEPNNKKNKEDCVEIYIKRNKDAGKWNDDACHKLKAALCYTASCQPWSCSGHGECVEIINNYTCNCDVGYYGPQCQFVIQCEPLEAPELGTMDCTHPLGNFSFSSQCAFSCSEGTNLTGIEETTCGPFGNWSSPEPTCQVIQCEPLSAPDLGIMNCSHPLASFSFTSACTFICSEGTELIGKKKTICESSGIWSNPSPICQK
Method: as §1, §2

[4] = tested on: human E-selectin-IgG chimera; assay: Flow chamber assay, cell adhesion and rolling under flow conditions, E-selectin; format: cell-based; details: 125 μM compound, flow shear 1 dyne/cm^2
Method: (§3) To assess the capability of compounds to inhibit cell binding under dynamic conditions resembling the flow in a blood vessel, flow chamber assays addressing/testing binding of HL-60 cells/various cell lines to P-selectin, L-selectin and E-selectin chimeric molecules are performed.
(§4) Cell attachment under flow conditions are determined using a parallel flow chamber system. A 35 mm polystyrene culture dish is coated for 1 hour at room temperature with coating buffer (50 mM tris-(hydroxymethyl)aminomethane buffer (Tris), 150 mM NaCl, 2 mM CaCl2; pH 7,4) containing human E- or P-selectin-IgG chimera at concentrations of 2.5 μg/ml or 10 μg/ml, respectively. After removal of the coating solution non specific binding sites are blocked for an additional hour with 1% BSA in coating buffer at room temperature. After washing with assay buffer (“Roswell Park Memorial Institute 1640” (RPMI 1640)+10 mM HEPES) the dish is fitted into a parallel plate laminar flow chamber (sold from Glycotech, Rockville, Md.) and mounted on an inverted phase-contrast microscope (sold from Olympus, Hamburg, Germany) equipped with a CCD camera (JVC) that is connected to a PC. Employing a peristaltic pump (sold from Ismatec, Wertheim-Mondfeld, Germany) the re-circulating system is equilibrated with assay buffer containing 125 μM compound or vehicle control (DMSO). Cells (1 million/ml) are added to the chamber and allowed to distribute for 2 minutes at a high flow rate. The flow rate is then decreased resulting in a calculated flow shear of 1 dyne/cm^2. Video sequences of 10 low power fields are digitally recorded after 5 minutes continuous flow. The percentage of inhibition is calculated from the mean number of cells per field that attached to the coated dish surface in the presence versus absence of compound […].

[5] = tested on: human P-selectin-IgG chimera; assay: Flow chamber assay, cell adhesion and rolling under flow conditions, P-selectin; format: cell-based; details: 125 μM compound, flow shear 1 dyne/cm^2
Method: as §3, §4

[6] = Parallel Artificial Membrane Permeation Assay (PAMPA); format: in vitro ADME; details: 16 hours, room temperature; for [% flux] at pH 4.0: pH 4.0, 500 μM donor; for [% flux] at pH 7.4: pH 7.4, 500 μM donor
Method: The test compounds are dissolved at 10 mM in DMSO and diluted to 500 μM with PBS pH 7.4 or pH 4.0, respectively resulting in ‘donor solutions’. For use as an artificial membrane, a 1% solution of lecithin (w/v) in dodecane is prepared and sonicated. Then, 5 μl of the lecithin/dodecane mixture are carefully pipetted into each donor plate well. Immediately after the application of the artificial membrane, 150 μl of drug containing donor solutions are added to each well of the donor plate. Each well of the acceptor plate is filled with 300 μl buffer (PBS with 5% DMSO at pH 7.4 or pH 4.0, respectively) and the drug-filled donor plate is placed onto the acceptor plate, making sure the membrane is in contact with the buffer. After replacement of the lid, the assembled plates are transferred into a sealed box equipped with a moistured towel and incubated at room temperature for 16 hours. Then, the wells of the acceptor plate are analyzed with LC/MS.

Row | SMILES | IC50 [1] | inhibition at 100 µM ([1]; compound at 100 μM) | inhibition at 100 µM ([2]; compound at 100 μM) | IC50 [3] | inhibition at 100 µM ([3]; compound at 100 μM) | E-Selectin [% Inhib.] of cell attachment [4] | IC50 [2] | P-Selectin [% Inhib.] of cell attachment [5] | [% flux] at pH 4.0 [6] | [% flux] at pH 7.4 [6] | P-Selectin [% Inhib.] ([1]; compound at 100 μM) | E-Selectin [% Inhib.] ([2]; compound at 100 μM) | L-Selectin [% Inhib.] ([3]; compound at 100 μM)
1 | O=C(O)Cc1ccc(-c2ccccc2NC(=O)Cc2ccc(O)c(O)c2O)s1 [Compound 41, (5-{2-[2-(2,3,4-Trihydroxyphenyl)-acetylamino]-phenyl}-thiophen-2-yl)acetic acid] | 7.6 µM | 92% | 46% | 14.6 µM | 81% | 26% |  |  |  |  |  |  | 
2 | O=C(O)Cc1ccc(-c2ccccc2NC(=O)c2cccc(-c3ccc(O)c(O)c3O)c2)s1 [Compound 48, (5-{2-[(2′,3′,4′-Trihydroxy-biphenyl-3-carbonyl)-amino]-phenyl}-thiophen-2-yl)-acetic acid] | 5.8 µM | 97% | 31% | 9.8 µM | 95% | 61% | 132 µM | 55% |  |  |  |  | 
3 | COC(=O)c1ccccc1NC(=O)Cc1ccc(O)c(O)c1O [Compound 93] |  | 68% | 20% |  | 63% |  |  |  | 0% | 17% |  |  | 
4 | O=C(/C=C/c1ccc(O)c(O)c1O)Nc1ccc(C(=O)O)cc1 [Compound 97] | 3.5 µM | 97% | 51% | 6.2 µM | 98% |  | 285 µM | 47% | 0% | 16% |  |  | 
5 | O=C(/C=C/c1ccc(O)c(O)c1O)Nc1cccc(C(=O)O)c1 [Compound 99] | 14.4 µM | 99% | 71% | 24.9 µM | 99% | 28% |  | 96% |  |  |  |  | 
6 | Cc1oc(-c2ccc(NC(=O)Cc3cc(O)c(O)c(O)c3)cc2)cc1C(=O)O [Compound 101] |  |  |  |  |  |  |  | 99% |  |  | 93% | 50% | 95%
7 | O=C(O)Cc1ccc(-c2ccccc2NC(=O)CCc2cc(O)c(O)c(O)c2)s1 [Compound 102] | 2.4 µM | 97% | 99% | 3.1 µM | 96% | 35% | 3.3 µM | 11% |  |  |  |  | 
8 | O=C(Cc1cc(O)c(O)c(O)c1)NCc1ccc(C(=O)O)cc1 [Compound 118] | 14.8 µM | 79% | 53% | 26.2 µM | 66% | 16% | 8.7 µM | 20% | 0% | 1% |  |  | 
9 | O=C(CCc1cc(O)c(O)c(O)c1)NCc1ccc(C(=O)O)cc1 [Compound 120] | 34.9 µM | 88% | 92% | 30.8 µM | 87% | 21% | 8.4 µM | 21% |  |  |  |  | 
10 | O=C(Cc1cc(O)c(O)c(O)c1)Nc1cccc(C(F)(F)F)c1 [Compound 123] |  |  |  |  |  | 51% |  |  | 27% | 0% |  |  | 
11 | O=C(Cc1ccc(O)c(O)c1O)Nc1cc(Cl)cc(Cl)c1 [Compound 124] |  |  |  |  |  | 28% |  | 23% | 100% | 0% |  |  | 
